Laboratory results: patent US20250144087A1, “USE OF VE607 FOR THE TREATMENT OF SARS-COV-2 INFECTIONS AND RELATED DISEASES” (priority 2022, published 2025)

Assays:
[1] = tested on: pseudoviral particles expressing the Spike from SARS-CoV-2; experiment: microbe, parasite or virus in culture; format: cell-based; settings: SARS-CoV-2 D614G pseudovirus
[2] = tested on: authentic SARS-CoV-2 D614G; format: cell-based
[3] = tested on: SARS-CoV-2 D614G Spike Q498V pseudoviral particles; format: cell-based
[4] = tested on: SARS-CoV-2 D614G Spike Y505T pseudoviral particles; format: cell-based
[5] = biological target: interaction of sACE2 with the full SARS-CoV-2 Spike expressed at the cell surface (Severe acute respiratory syndrome coronavirus 2, UniProt P0DTC2, D614G); format: binding
SARS-CoV-2 Spike = SARS-CoV-2 Spike (Severe acute respiratory syndrome coronavirus 2, UniProt P0DTC2, D614G); format: cell-based
[6] = tested on: pseudoviral particles bearing the Spike glycoproteins from the major VOCs (Alpha, Beta, Gamma, Delta and Omicron); format: cell-based, SARS-CoV-2

SMILES	capacity to neutralize SARS-CoV-2 pseudovirus particles compared with commercially available VE607 [1]	IC50 [2] [nM]	IC50 [3] [nM]	IC50 [4] [nM]	competition with sACE2 for interaction with Spike [5]	S1 shedding / trimer stability (SARS-CoV-2 Spike)	IC50 values [6]
O[C@@H](COc1cccc(OC[C@H](O)CN2CCCCC2)c1)CN1CCCCC1 [(R,R)-VE607, (2R,2′R)-3,3′-(1,3-phenylenebis(oxy))bis(1-(piperidin-1-yl)propan-2-ol)]	same capacity as commercially available VE607						
O[C@H](COc1cccc(OC[C@@H](O)CN2CCCCC2)c1)CN1CCCCC1 [(S,S)-VE607, (2S,2'S)-3,3′-(1,3-phenylenebis(oxy))bis(1-(piperidin-1-yl)propan-2-ol)]	same capacity as commercially available VE607						
C=CCC(/C=C/OCC(O)CN(CC)CCC)OCC(O)CN(CC)CCC (centres unmarked) [VE607]		2420	1800	> 40000	no competition	decrease shedding	low micromolar range
